These results are taken from ChEMBL document CHEMBL4616632, “Discovery of Cyclic Boronic Acid QPX7728, an Ultrabroad-Spectrum Inhibitor of Serine and Metallo-β-lactamases” (J Med Chem, 2020).

Data set [1] relates to Klebsiella pneumoniae. The data set is described as follows: Potentiation of meropenem-induced antibacterial activity against carbapenem-resistant Klebsiella pneumoniae assessed as meropenem MIC50 at 8 ug/ml by broth microdilution method (reference value: 32 ug/ml). The format is functional. A general note: Dilution methods test growth across graded concentrations, often in twofold steps.

Data set [2] relates to Klebsiella pneumoniae. Briefly: Potentiation of ceftolozane-induced antibacterial activity against carbapenem-resistant Klebsiella pneumoniae assessed as ceftolozane MIC50 at 8 ug/ml by broth microdilution method (Rvb > 32 ug/ml). It is filed as functional.
Data set [3] deals with Escherichia coli. The data set is described as follows: Inhibition of Escherichia coli ECM6619 TEM-10 assessed as minimum concentration of compound needed to reduce the MIC of aztreonam to 4 ug/ml.
A short description of data set [4]: AUC in rat at 30 mg/kg, po administered via gavage by HPLC/MS analysis. It is filed as ADME, organism-based. To be noted: in vivo.
Data set [5] can be described thus: Cmax in rat at 30 mg/kg, po administered via gavage by HPLC/MS analysis. It is filed as ADME, organism-based. Set-up: dose 30 mg/kg, route oral. To be noted: in vivo.
Data set [6] concerns Klebsiella pneumoniae. The data set is described as follows: Inhibition of Klebsiella pneumoniae KP1054 VIM-1 assessed as minimum concentration of compound required to reduce the MIC of biapenem to 1 ug/ml.
Data set [7] has as its system Klebsiella pneumoniae. The data set is described as follows: Inhibition of Klebsiella pneumoniae KP1160 IMP-26 assessed as minimum concentration of compound needed to reduce the MIC of meropenem to 1 ug/ml.
The nature of data set [8]: Inhibition of mammalian elastase (unknown origin) using Suc-AAPA-pNA as substrate preincubated for 10 mins followed by substrate addition measured after 30 mins. Set-up: species or system Homo sapiens.
In data set [9] the test system is Klebsiella pneumoniae. Briefly: Inhibition of Klebsiella pneumoniae KP1081 NDM-1 assessed as minimum concentration of compound required to reduce the MIC of biapenem to 1 ug/ml.
The nature of data set [10]: Clearance in rat at 100 mg/kg, po administered via gavage by HPLC/MS analysis. It is filed as ADME, organism-based. To be noted: in vivo.
The nature of data set [11]: Oral bioavailability in rat at 1000 mg/kg administered via gavage by HPLC/MS analysis. It is filed as ADME, organism-based. As to conditions: in vivo.
The test system of data set [12] is Acinetobacter baumannii. The data set is described as follows: Potentiation of cefepime-induced antibacterial activity against carbapenem-resistant Acinetobacter baumannii assessed as cefepime MIC50 at 8 ug/ml by broth microdilution method (Rvb > 32 ug/ml). The format is functional.
Data set [13] has as its target Dipeptidyl peptidase 2 (Homo sapiens, UniProt Q9UHL4). Briefly: Inhibition of mammalian DPP7 (unknown origin) using H-Lys-Pro-AMC as substrate preincubated for 10 mins followed by substrate addition measured after 30 mins.
Data set [14] relates to Enterobacteriaceae. The data set is described as follows: Inhibition of OXA-48 in carbapenem-resistant Enterobacteriaceae assessed as potentiation of cefepime-induced antibacterial activity by measuring cefepime MIC90 at 8 ug/ml by broth microdilution method (Rvb > 32 ug/ml).
Data set [15] in a line: Toxicity in rat at 30 to 1000 mg/kg, po administered via gavage. It is filed as organism-based. To be noted: in vivo.
The subject of data set [16] is Enterobacteriaceae. Briefly: Potentiation of meropenem-induced antibacterial activity against carbapenem-resistant Enterobacteriaceae assessed as meropenem MIC90 at 8 ug/ml by broth microdilution method (reference value: 16 ug/ml). The format is functional.
In data set [17] the test system is Enterobacteriaceae. The data set is described as follows: Inhibition of OXA-48 in carbapenem-resistant Enterobacteriaceae assessed as potentiation of cefepime-induced antibacterial activity by measuring cefepime MIC50 at 8 ug/ml by broth microdilution method (Rvb > 32 ug/ml).
Data set [18] is described as follows: Inhibition of recombinant Escherichia coli IMP-1 using imipenem as substrate preincubated for 10 mins followed by substrate addition measured every 30 secs for 30 mins by spectrophotometrically analysis.
Data set [19] is described as follows: Half life in rat at 1000 mg/kg, po administered via gavage by HPLC/MS analysis. The format is ADME, organism-based. As to conditions: in vivo.
Data set [20] addresses Cathepsin G (Homo sapiens, UniProt P08311). Briefly: Inhibition of mammalian cathepsin G (unknown origin) using Suc-AAPF-AMC as substrate preincubated for 10 mins followed by substrate addition measured after 30 mins.
The subject of data set [21] is Enterobacterales. Briefly: Potentiation of ceftolozane-induced antibacterial activity against Enterobacterales assessed as ceftolozane MIC90 at 8 ug/ml by broth microdilution method (Rvb > 32 ug/ml). The format is functional.

Cathepsin G, sequence (P08311 whole entry): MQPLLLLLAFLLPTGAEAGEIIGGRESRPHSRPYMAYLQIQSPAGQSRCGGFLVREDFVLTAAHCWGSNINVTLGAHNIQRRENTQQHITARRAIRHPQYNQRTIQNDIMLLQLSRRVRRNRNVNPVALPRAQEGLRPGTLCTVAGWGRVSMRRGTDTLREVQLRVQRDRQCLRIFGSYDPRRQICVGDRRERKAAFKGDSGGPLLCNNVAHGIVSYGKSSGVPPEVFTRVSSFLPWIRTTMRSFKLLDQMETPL

In general, AUC refers to concentration integrated over time. For orientation: Cmax means the highest concentration seen after dosing. Usually IC50 stands for the concentration at which inhibition is half-maximal. What is called CL/F is clearance divided by bioavailability, as obtained after extravascular dosing. In general, bioavailability refers to dose-corrected exposure relative to a reference, in per cent. The term Ki denotes the dissociation constant of the complex between target and ligand, obtained from inhibition or displacement. The term half-life denotes the time needed for the level to fall by half in the phase considered. Turning to `O=C(O)c1c(F)ccc2c1OB(O)[C@@H]1C[C@H]21` [XERUBORBACTAM], the MIC50 was at most 0.06 µg/mL in [1], 0.125 µg/mL in data set [2], 16 µg/mL in data set [12] and 0.125 µg/mL in [17]. Besides, the MEC was found to be 0.16 µg/mL in data set [3], 0.16 µg/mL in [6], 2.5 µg/mL in data set [7] and 0.6 µg/mL in [9]. The AUC in data set [4] was found to be 34000 ng·h/mL. The same molecule had a Cmax in data set [5] of 8600 ng/mL. Moreover, the IC50 was 101 µM in [8], above 1000 µM in data set [13] and 666 µM in [20]. The same molecule had a CL/F in data set [10] of 18.5 mL/min/kg. In addition, in data set [11], the bioavailability was 24.3%. Moreover, the MIC90 is 0.5 µg/mL in data set [14], 0.25 µg/mL in data set [16] and 8 µg/mL in data set [21]. Besides, the Activity result in [15] is recorded as “Non-Toxic”. In data set [18], the Ki is 0.22 µM. In addition, the half-life in data set [19] was 4 h.
